# Experimental data reported in patent publication US20220387604A1, “SELECTIVE DUAL HISTONE DEACETYLASE 6/8 (HDAC6/8) DEGRADERS AND METHODS OF USE THEREOF” (DANA-FARBER CANCER INSTITUTE, INC., priority 2019, published 2022).
# Experiments:
# Type in all cases: biochemical
# HDAC9 = molecular target: T1, HDAC9 (Homo sapiens, UniProt Q9UKV0); assay: HDAC enzymatic assay (Reaction Biology), HDAC9; details: summary of Table 1
# T1 construct: purchased Reaction Biology
# Method: (§1) Compound 1 was tested in an enzymatic assay from Reaction Biology® against 10 HDAC isoforms. The IC50 values were derived from a 10-dose response curve.
# (§2) Base Reaction buffer: 50 mM Tris-HCl, pH8.0, 137 mM NaCl, 2.7 mM KCl, and 1 mM MgCl2, Add fresh: 1 mg/ml BSA, 1% DMSO
# (§3) Class2A Substrate (HDAC4, HDAC5, HDAC7, and HDAC9): Boc-Lys(trifluoroacetyl)-AMC
# (§4) 1. Delivered 2× enzyme in wells of reaction plate except in the control wells and added buffer to control wells. 2. Delivered compounds in 100% DMSO into the enzyme mixture by Acoustic technology (Echo550; nanoliter range). Spin down and pre-incubation. 3. Delivered 2× Substrate Mixture (Fluorogenic HDAC Substrate and co-factor if applicable) in all reaction wells to initiate the reaction. Spin and shake. 4. Incubated for 30 min for Class 2A, 1 h for HDAC1, 2, 3, and 6, and 2 h for the rest of HDAC isoforms and SIRTs at 30° C. with seal.
# (§5) 5. Added Developer with Trichostatin A (or Nicotinamide for SIRTs) to stop the reaction and to generate fluorescent color. 6. The fluorescence that was generated was detected with excitation (Ex) at […] and emission (Em) at 460 nM by the EnVision Multilabel Plate Reader (PerkinElmer®, Santa Clara, Calif., USA).
# (§6) IC50 values were derived from a 10-dose response curve.
# HDAC4 = molecular target: T2, HDAC4 (Homo sapiens, UniProt P56524); assay: HDAC enzymatic assay (Reaction Biology), HDAC4; details: summary of Table 1
# T2 construct: purchased Reaction Biology
# T2 sequence (P56524 whole entry): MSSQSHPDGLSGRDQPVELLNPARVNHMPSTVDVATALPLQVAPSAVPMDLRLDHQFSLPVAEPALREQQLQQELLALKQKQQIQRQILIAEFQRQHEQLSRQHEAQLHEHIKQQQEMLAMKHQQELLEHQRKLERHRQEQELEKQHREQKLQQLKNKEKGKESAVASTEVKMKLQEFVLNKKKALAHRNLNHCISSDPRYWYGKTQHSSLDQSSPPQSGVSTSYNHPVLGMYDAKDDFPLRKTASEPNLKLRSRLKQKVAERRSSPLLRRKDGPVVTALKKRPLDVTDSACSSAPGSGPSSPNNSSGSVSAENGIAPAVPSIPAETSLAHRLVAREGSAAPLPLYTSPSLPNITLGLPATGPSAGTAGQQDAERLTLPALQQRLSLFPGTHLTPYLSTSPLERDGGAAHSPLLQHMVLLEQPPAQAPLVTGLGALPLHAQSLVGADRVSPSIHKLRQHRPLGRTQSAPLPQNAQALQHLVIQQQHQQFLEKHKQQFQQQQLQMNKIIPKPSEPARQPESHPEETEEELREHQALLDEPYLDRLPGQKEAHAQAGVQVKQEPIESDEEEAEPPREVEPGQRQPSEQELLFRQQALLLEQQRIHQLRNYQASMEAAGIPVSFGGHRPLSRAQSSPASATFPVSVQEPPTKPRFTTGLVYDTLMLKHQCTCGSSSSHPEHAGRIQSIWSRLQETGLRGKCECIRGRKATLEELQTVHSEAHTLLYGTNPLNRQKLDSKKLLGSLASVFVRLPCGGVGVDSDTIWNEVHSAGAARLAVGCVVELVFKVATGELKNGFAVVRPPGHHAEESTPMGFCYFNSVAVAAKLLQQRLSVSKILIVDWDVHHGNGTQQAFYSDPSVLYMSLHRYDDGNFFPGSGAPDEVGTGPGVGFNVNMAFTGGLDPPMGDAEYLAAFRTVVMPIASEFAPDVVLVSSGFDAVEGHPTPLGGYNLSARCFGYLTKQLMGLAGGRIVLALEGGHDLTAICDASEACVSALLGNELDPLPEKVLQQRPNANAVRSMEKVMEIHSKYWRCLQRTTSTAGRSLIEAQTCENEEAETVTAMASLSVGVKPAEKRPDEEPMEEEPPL
# Method: as §1, §2, §3, §4, §5, §6
# HDAC6 = molecular target: T3, HDAC6 (Homo sapiens, UniProt Q9UBN7); assay: HDAC enzymatic assay (Reaction Biology), HDAC6; details: 10-dose response curve; read-out: Compound IC50 (M), HDAC6
# T3 construct: purchased Reaction Biology
# T3 sequence (Q9UBN7 1-1215): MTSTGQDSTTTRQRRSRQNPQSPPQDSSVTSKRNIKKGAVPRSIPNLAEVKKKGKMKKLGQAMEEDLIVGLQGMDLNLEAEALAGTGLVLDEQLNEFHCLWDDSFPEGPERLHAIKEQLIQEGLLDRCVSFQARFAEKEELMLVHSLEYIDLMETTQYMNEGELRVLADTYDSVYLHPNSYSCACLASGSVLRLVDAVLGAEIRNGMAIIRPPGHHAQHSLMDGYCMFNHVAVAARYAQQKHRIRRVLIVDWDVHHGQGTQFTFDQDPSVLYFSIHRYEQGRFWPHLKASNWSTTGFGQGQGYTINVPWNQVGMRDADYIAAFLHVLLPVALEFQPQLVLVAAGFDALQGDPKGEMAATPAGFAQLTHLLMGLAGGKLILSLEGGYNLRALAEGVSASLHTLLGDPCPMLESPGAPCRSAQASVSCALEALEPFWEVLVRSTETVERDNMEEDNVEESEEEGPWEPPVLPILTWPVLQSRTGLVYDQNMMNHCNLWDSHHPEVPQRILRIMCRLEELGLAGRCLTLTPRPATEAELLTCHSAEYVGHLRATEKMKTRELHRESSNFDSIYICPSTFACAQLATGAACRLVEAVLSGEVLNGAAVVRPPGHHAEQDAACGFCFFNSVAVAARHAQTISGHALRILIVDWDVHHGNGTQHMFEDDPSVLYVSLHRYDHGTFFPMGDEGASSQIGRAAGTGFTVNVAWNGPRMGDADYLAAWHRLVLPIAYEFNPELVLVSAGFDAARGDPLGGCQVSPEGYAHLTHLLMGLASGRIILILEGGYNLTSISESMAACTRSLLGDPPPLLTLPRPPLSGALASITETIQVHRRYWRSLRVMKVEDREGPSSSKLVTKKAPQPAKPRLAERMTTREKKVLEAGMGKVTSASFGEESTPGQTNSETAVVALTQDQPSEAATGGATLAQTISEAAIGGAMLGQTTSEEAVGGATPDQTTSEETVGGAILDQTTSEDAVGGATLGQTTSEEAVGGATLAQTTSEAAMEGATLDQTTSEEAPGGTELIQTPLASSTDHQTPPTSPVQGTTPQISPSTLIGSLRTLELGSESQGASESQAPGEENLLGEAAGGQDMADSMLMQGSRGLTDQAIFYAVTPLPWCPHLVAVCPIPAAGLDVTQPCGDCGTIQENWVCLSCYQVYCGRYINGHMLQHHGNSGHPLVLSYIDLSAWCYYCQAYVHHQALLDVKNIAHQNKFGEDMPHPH
# Method: as §1, §2
# Fluorogenic HDAC General Substrate (HDAC1, HDAC2, HDAC3, HDAC6, HDAC10, and HDAC11): 50 μM, Arg-His-Lys-Lys(Ac)-AMC
# as §4, §5, §6
# T1 sequence (Q9UKV0 whole entry): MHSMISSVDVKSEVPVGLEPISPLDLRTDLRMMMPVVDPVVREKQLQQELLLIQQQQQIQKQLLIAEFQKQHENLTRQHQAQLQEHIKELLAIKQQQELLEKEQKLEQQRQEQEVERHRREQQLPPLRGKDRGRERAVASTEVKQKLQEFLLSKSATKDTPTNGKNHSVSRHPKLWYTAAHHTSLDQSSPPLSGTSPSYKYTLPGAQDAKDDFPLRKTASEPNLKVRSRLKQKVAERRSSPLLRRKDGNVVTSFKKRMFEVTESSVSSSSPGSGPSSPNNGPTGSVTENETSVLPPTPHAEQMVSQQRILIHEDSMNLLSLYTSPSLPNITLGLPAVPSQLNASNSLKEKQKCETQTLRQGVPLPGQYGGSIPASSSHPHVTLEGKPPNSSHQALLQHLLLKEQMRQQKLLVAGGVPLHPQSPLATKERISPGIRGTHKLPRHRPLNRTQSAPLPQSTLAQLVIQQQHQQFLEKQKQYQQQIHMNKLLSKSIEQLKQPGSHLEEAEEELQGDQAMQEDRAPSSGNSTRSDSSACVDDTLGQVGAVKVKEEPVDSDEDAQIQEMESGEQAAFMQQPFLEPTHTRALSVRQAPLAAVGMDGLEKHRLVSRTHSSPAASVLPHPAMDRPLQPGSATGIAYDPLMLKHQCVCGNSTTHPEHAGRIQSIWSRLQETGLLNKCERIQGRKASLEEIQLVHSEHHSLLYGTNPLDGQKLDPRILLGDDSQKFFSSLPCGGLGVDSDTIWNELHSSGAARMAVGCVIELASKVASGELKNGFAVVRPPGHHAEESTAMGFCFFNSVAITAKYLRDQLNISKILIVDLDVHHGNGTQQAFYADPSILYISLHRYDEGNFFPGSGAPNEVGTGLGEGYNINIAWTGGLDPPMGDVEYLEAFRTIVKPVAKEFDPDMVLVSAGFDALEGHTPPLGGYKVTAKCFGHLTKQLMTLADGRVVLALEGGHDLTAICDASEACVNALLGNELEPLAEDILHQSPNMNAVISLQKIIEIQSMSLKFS
structure (smiles),measurement,setting,value
"O=C(/C=C/c1ccc(CN(CCOCCOCCNc2cccc3c2C(=O)N(C2CCC(=O)NC2=O)C3=O)CCc2c[nH]c3ccccc23)cc1)NO (stereo not drawn) [Compound 1, (E)-3-(4-(((2-(1H-indol-3-yl)ethyl)(2-(2-(2-((2-(2,6-dioxopiperidin-3-yl)-1,3-dioxoisoindolin-4-yl)amino)ethoxy)ethoxy)ethyl)amino)methyl)phenyl)-N-hydroxyacrylamide]",inhibition of enzymatic activity of HDAC9 (in words),HDAC9,did not inhibit
same,inhibition of enzymatic activity of HDAC4 (in words),HDAC4,did not inhibit
same,IC50,HDAC6,1.6e-07 M
